Where only a bound is given, the exact number is not on record here.

What is called IC50 is the concentration that gives 50% inhibition.

This assay addresses T1, TLR8 (Homo sapiens, UniProt Q9NR97).
T1 sequence (Q9NR97 27-1041): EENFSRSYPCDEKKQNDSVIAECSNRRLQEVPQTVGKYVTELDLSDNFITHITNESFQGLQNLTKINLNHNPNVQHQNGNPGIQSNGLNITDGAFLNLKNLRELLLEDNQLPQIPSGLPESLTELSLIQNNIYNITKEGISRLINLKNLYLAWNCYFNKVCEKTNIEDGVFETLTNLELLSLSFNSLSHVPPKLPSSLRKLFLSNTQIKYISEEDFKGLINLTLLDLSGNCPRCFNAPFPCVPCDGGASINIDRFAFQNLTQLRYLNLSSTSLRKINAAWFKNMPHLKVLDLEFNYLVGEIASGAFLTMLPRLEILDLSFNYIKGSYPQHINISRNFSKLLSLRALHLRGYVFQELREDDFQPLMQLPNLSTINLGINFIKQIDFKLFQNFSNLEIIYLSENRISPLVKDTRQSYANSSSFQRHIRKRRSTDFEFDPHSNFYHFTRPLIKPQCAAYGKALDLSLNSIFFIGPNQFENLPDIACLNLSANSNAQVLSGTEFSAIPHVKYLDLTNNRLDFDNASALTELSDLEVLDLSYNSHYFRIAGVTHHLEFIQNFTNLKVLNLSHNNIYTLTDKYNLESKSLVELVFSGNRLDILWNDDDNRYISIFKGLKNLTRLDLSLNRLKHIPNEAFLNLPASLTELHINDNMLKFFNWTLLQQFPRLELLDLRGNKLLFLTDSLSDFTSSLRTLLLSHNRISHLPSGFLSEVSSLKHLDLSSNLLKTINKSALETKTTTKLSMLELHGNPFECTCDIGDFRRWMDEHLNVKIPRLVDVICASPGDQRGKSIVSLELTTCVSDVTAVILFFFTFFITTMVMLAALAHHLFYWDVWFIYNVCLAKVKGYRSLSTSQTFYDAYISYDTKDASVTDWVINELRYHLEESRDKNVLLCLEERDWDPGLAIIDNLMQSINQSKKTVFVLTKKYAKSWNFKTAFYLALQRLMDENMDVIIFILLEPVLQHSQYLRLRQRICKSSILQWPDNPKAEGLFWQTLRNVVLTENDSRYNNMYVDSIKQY
The assay is described as follows: huPBMC TLR8 Antagonist IL-6 TR-FRET Assay. Set-up: Fresh blood was collected from normal human donors; endogenous in cells; host or cells: human PBMCs from fresh donor blood. The settings on record: human PBMCs stimulated with ssRNA40 1 μg/ml (DOTAP), 14-16 hrs; IL-6 TR-FRET read-out. It is filed as cell-based. The essentials:
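Human PBMCs from fresh donor blood (150,000 cells/well) stimulated 14–16 h at 37 °C with DOTAP-complexed ssRNA40 (final 1 μg/ml for TLR8, 10 μg/mL for TLR7) or ODN2216 (final 0.3 μM, TLR9), 0.25% DMSO, ten-point 1/3 compound dilutions. Supernatant IL-6 read by HTRF (TLR8); IFNα by IFNα2b AlphaLISA (TLR7/TLR9).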
As for `Cc1cc(N2CCc3c(c(C)nn3CC34CCC(NC(=O)[C@@H]5COCCN5)(CC3)CC4)C2)c2cnn(C)c2n1` [Compound No. 8, (S)—N-(4-((5-(1,6-dimethyl-1H-pyrazolo[3,4-b]pyridin-4-yl)-3-methyl-4,5,6,7-tetrahydro-1H-pyrazolo[4,3-c]pyridin-1-yl)methyl)bicyclo[2.2.2]octan-1-yl)morpholine-3-carboxamide], the IC50 amounted to 166 nM. The value for `Cc1nn(CC23CCC(NC4CCC4)(CC2)CC3)c2c1CN(c1ccnc(-c3ccccc3)c1)CC2` [compound 144, N-cyclobutyl-4-((3-methyl-5-(2-phenylpyridin-4-yl)-4,5,6,7-tetrahydro-1H-pyrazolo[4,3-c]pyridin-1-yl)methyl)bicyclo[2.2.2]octan-1-amine] was 105 nM; that for `Cc1cc(N2CCc3c(c(C)nn3CC34CCC(NC(=O)C5CNC5)(CC3)CC4)C2)c2cnn(C)c2n1` [compound 131, N-(4-((5-(1,6-dimethyl-1H-pyrazolo[3,4-b]pyridin-4-yl)-3-methyl-4,5,6,7-tetrahydro-1H-pyrazolo[4,3-c]pyridin-1-yl)methyl)bicyclo[2.2.2]octan-1-yl)azetidine-3-carboxamide] was 361 nM. Next, `CCNCC(=O)NC12CCC(Cn3nc(C)c4c3CCN(c3cc(C)nc5c3cnn5C)C4)(CC1)CC2` [compound 114, N-(4-((5-(1,6-dimethyl-1H-pyrazolo[3,4-b]pyridin-4-yl)-3-methyl-4,5,6,7-tetrahydro-1H-pyrazolo[4,3-c]pyridin-1-yl)methyl)bicyclo[2.2.2]octan-1-yl)-2-(ethylamino)acetamide]: 15 nM. Next, `CCNCCC(=O)NC12CCC(Cn3nc(C)c4c3CCN(c3cc(C)nc5c3cnn5C)C4)(CC1)CC2` [compound 126, N-(4-((5-(1,6-dimethyl-1H-pyrazolo[3,4-b]pyridin-4-yl)-3-methyl-4,5,6,7-tetrahydro-1H-pyrazolo[4,3-c]pyridin-1-yl)methyl)bicyclo[2.2.2]octan-1-yl)-3-(ethylamino)propanamide]: 153 nM; `Cc1nc(N2CCc3c(c(C)nn3CC34CCC(N5CC6(COC6)C5)(CC3)CC4)C2)c2c(n1)c(C)nn2C` [Compound No. 10, 6-(4-((3-methyl-5-(1,3,5-trimethyl-1H-pyrazolo[4,3-d]pyrimidin-7-yl)-4,5,6,7-tetrahydro-1H-pyrazolo[4,3-c]pyridin-1-yl)methyl)bicyclo[2.2.2]octan-1-yl)-2-oxa-6-azaspiro[3.3]heptane]: 48 nM; `CCN(C)CC(=O)NC12CCC(Cn3nc(C)c4c3CCN(c3cc(C)nc5c3cnn5C)C4)(CC1)CC2` [compound 132, N-(4-((5-(1,6-dimethyl-1H-pyrazolo[3,4-b]pyridin-4-yl)-3-methyl-4,5,6,7-tetrahydro-1H-pyrazolo[4,3-c]pyridin-1-yl)methyl)bicyclo[2.2.2]octan-1-yl)-2-(ethyl(methyl)amino)acetamide]: 8 nM. On to `CCNCC(=O)NC12CCC(Cn3nc(C)c4c3CCN(c3cc(C)nc5cn[nH]c35)C4)(CC1)CC2` [compound 124, 2-(ethylamino)-N-(4-((3-methyl-5-(5-methyl-1H-pyrazolo[4,3-b]pyridin-7-yl)-4,5,6,7-tetrahydro-1H-pyrazolo[4,3-c]pyridin-1-yl)methyl)bicyclo[2.2.2]octan-1-yl)acetamide], for which the IC50 is more than 10000 nM. For `Cc1nc(N2CCc3c(c(C)nn3CC34CCC(N5CCOCC5)(CC3)CC4)C2)c2c(n1)c(C)nn2C` [compound 25, 4-(4-((3-methyl-5-(1,3,5-trimethyl-1H-pyrazolo[4,3-d]pyrimidin-7-yl)-4,5,6,7-tetrahydro-1H-pyrazolo[4,3-c]pyridin-1-yl)methyl)bicyclo[2.2.2]octan-1-yl)morpholine], the IC50 came to 17 nM. The value for `Cc1cc(N2CCc3c(c(C)nn3CC34CCC(N5CCN(C)C(=O)C5)(CC3)CC4)C2)c2cnn(C)c2n1` [Compound No. 104, 4-(4-((5-(1,6-dimethyl-1H-pyrazolo[3,4-b]pyridin-4-yl)-3-methyl-4,5,6,7-tetrahydro-1H-pyrazolo[4,3-c]pyridin-1-yl)methyl)bicyclo[2.2.2]octan-1-yl)-1-methylpiperazin-2-one] was 389 nM; that for `Cc1cc(N2CCc3c(c(C)nn3CC34CCC(n5ccnc5)(CC3)CC4)C2)c2cnn(C)c2n1` [Compound No. 119, 1-((4-(1H-imidazol-1-yl)bicyclo[2.2.2]octan-1-yl)methyl)-5-(1,6-dimethyl-1H-pyrazolo[3,4-b]pyridin-4-yl)-3-methyl-4,5,6,7-tetrahydro-1H-pyrazolo[4,3-c]pyridine] was 1180 nM.

On to `Cc1nc(N2CCc3c(c(C)nn3CC34CCC(NC(=O)[C@@H]5COCCN5)(CC3)CC4)C2)c2c(n1)c(C)nn2C` [compound 33, (S)-N-(4-((3-methyl-5-(1,3,5-trimethyl-1H-pyrazolo[4,3-d]pyrimidin-7-yl)-4,5,6,7-tetrahydro-1H-pyrazolo[4,3-c]pyridin-1-yl)methyl)bicyclo[2.2.2]octan-1-yl)morpholine-3-carboxamide], for which the IC50 came out at 72 nM. With `Cc1cc(N2CCc3c(c(C)nn3CC34CCC(N5C[C@H](C)O[C@@H](C)C5)(CC3)CC4)C2)c2cnn(C)c2n1` [compound 111, (2S,6S)-4-(4-((5-(1,6-dimethyl-1H-pyrazolo[3,4-b]pyridin-4-yl)-3-methyl-4,5,6,7-tetrahydro-1H-pyrazolo[4,3-c]pyridin-1-yl)methyl)bicyclo[2.2.2]octan-1-yl)-2,6-dimethylmorpholine], the IC50 stood at 39 nM. Next, `Cc1cc(N2CCc3c(c(C)nn3CC34CCC(NCC(C)(C)O)(CC3)CC4)C2)c2cnn(C)c2n1` [compound 123, 1-((4-((5-(1,6-dimethyl-1H-pyrazolo[3,4-b]pyridin-4-yl)-3-methyl-4,5,6,7-tetrahydro-1H-pyrazolo[4,3-c]pyridin-1-yl)methyl)bicyclo[2.2.2]octan-1-yl)amino)-2-methylpropan-2-ol]: 121 nM; `COCCNC12CCC(Cn3nc(C)c4c3CCN(c3cc(C)nc5c3cnn5C)C4)(CC1)OC2` [compound 102, 1-((5-(1,6-dimethyl-1H-pyrazolo[3,4-b]pyridin-4-yl)-3-methyl-4,5,6,7-tetrahydro-1H-pyrazolo[4,3-c]pyridin-1-yl)methyl)-N-(2-methoxyethyl)-2-oxabicyclo[2.2.2]octan-4-amine]: 366 nM. Consider `Cc1nc(N2CCc3c(c(C)nn3CC34CCC(NC(=O)[C@H]5CNCCO5)(CC3)CC4)C2)c2c(n1)c(C)nn2C` [compound 36, (R)-N-(4-((3-methyl-5-(1,3,5-trimethyl-1H-pyrazolo[4,3-d]pyrimidin-7-yl)-4,5,6,7-tetrahydro-1H-pyrazolo[4,3-c]pyridin-1-yl)methyl)bicyclo[2.2.2]octan-1-yl)morpholine-2-carboxamide], for which the IC50 was 80 nM. On to `Cc1nc(N2CCc3c(c(C)nn3CC34CCC(N5CCOCC5)(CC3)CC4)C2)c2cnn(C)c2n1` [compound 19, 4-(4-((5-(1,6-dimethyl-1H-pyrazolo[3,4-d]pyrimidin-4-yl)-3-methyl-4,5,6,7-tetrahydro-1H-pyrazolo[4,3-c]pyridin-1-yl)methyl)bicyclo[2.2.2]octan-1-yl)morpholine], for which the IC50 is 186 nM. The value for `[2H]C([2H])([2H])N(C([2H])([2H])[2H])C12CCC(Cn3nc(C)c4c3CCN(c3nc(C)nc5c(C)nn(C)c35)C4)(CC1)CC2` [compound 40, 4-((3-methyl-5-(1,3,5-trimethyl-1H-pyrazolo[4,3-d]pyrimidin-7-yl)-4,5,6,7-tetrahydro-1H-pyrazolo[4,3-c]pyridin-1-yl)methyl)-N,N-bis(trideuteromethyl)bicyclo[2.2.2]octan-1-amine] was 314 nM; that for `Cc1c2c(nn1CC13CCC(N)(CC1)CC3)CCN(c1ccnc3[nH]ncc13)C2` [compound 42, 4-((3-methyl-5-(1H-pyrazolo[3,4-b]pyridin-4-yl)-4,5,6,7-tetrahydro-2H-pyrazolo[4,3-c]pyridin-2-yl)methyl)bicyclo[2.2.2]octan-1-amine] was more than 10000 nM.

(Values after patent US20240376099A1, “COMPOUNDS AND COMPOSITIONS AS INHIBITORS OF ENDOSOMAL TOLL-LIKE RECEPTORS” (Novartis AG, priority 2016, published 2024).)
